Holding throughout (assay type): cell-based
In one assay the test system is N87. Put plainly: In vitro tumor cell proliferation assay (Cell Titer-Glo) in N87 cells. The note with it: N87 human gastric carcinoma overexpressing HER2 and HER1; 72 hours exposure; read-out: IC50, activities in N87 cell lines. In a few lines:
(§1)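 Viability after 72 h drug exposure at 37 °C was read as CellTiter-Glo ATP luminescence, giving IC50. Cells (2.5×10^3/well, RPMI + 10% FBS) were compound-treated one day post-seeding, 0.1% DMSO final: A431 overexpresses HER1, N87 overexpresses HER2 and HER1.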
For orientation: Cellular ATP, detected with luciferase, serves as a proxy for viable cell number.

The subject of another assay is A431 cells. As to the kind of experiment: In vitro tumor cell proliferation assay (Cell Titer-Glo) in A431 cells. The note with it: Homo sapiens, A-431, 72 h, A431 human epidermoid carcinoma overexpressing HER1; 72 hours exposure; read-out: IC50, activities in A431 cell lines. The method in brief:
as §1

The next assay concerns H1975 cells. Put plainly: In vitro tumor cell proliferation assay (Cell Titer-Glo) in H1975 cells. The note with it: NCI-H1975; H1975 human NSCLC expressing mutant HER1 (L858R,T790M); 72 hours exposure; read-out: IC50, activities in H 1975 cell lines. In a few lines:
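After 72 h compound exposure at 37° C (top 10 uM down to 64 pM, 0.1% DMSO), viability of EGFR L858R/T790M-mutant H1975 cells was read as ATP luminescence.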

Where only a bound is given, the exact number is not on record here.

What is called IC50 is the concentration needed to halve the response being measured.

For `O=C(/C=C/CN1CCCC1)N1CCc2c(sc3ncnc(Nc4ccc(OCc5ccccn5)c(Cl)c4)c23)C1` [Example 24, N-[3-chloro-4-(pyridin-2-ylmelhoxy)phenyl]-7-[(2E)-4-pyrrolidin-1-ylbut-2-enoyl]-5,6,7,8-tetrahydropyrido [4′,3′:4,5]thieno[2,3-d]pyrimidin-4-amine], the values for the IC50 with N87, in the assay on A431 cells and in the assay on H1975 cells were less than 200 nM, 200 to 1000 nM and less than 200 nM, respectively.
Consider `COc1cccc(Nc2ncnc3sc4c(c23)CCN(C(=O)/C=C/CN(C)C)C4)c1` [Example 179, 7-[(2E)-4-(dimethylamino)but-2-enoyl]-N-(3-methoxyphenyl)-5,6,7,8-tetrahydropyrido [4′,3′:4,5]thieno[2,3-d]pyrimidin-4-amine], for which the IC50 in the assay on N87 is less than 200 nM; in the assay with A431 cells, 1000 to 10000 nM; in the assay on H1975 cells it was 1000 to 10000 nM.
For the molecule `CCN(CC)C/C=C/C(=O)N1CCc2c(sc3ncnc(Nc4ccc5c(cnn5Cc5cccc(F)c5)c4)c23)C1` [Example 99, 7-[(2E)-4-(diethylamino)but-2-enoyl]-N-[1-(3-fluorobenzyl)-1H-indazol-5-yl]5,6,7,8-tetrahydropyrido [4′,3′:4,5]thieno[2,3-d]pyrimidin-4-amine], the figures for the concentration for half-maximal inhibition (IC50) in the assay on N87, in the assay on A431 cells and with H1975 cells were less than 200 nM, 200 to 1000 nM and 200 to 1000 nM, respectively.
Take `O=C(/C=C/CN1CCCCC1)N1CCc2c(sc3ncnc(Nc4ccc(OCc5ccccn5)c(Cl)c4)c23)C1` [Example 4, N-[3-chloro-4-(pyridin-2-ylmethoxy)phenyl]-7-[(2E)-4-piperidin-1-ylbut-2-enoyl]-5,6,7,8-tetrahydropyrido[4′,3′:4,5]thieno[2,3-d]pyrimidin-4-amine]: the IC50 in the assay with N87 is less than 200 nM; in the assay with A431 cells it was less than 200 nM; in the assay with H1975 cells it was 200 to 1000 nM.
Take `CC(C)N(C)C/C=C/C(=O)N1CCc2c(sc3ncnc(Nc4ccc5c(ccn5Cc5ccccn5)c4)c23)C1` [Example 117, 7-{(2E)-4-[isopropyl(methyl)amino]but-2-enoyl}-N-[1-(pyridin-2-ylmethyl)-1H-indol-5-yl]-5,6,7,8-tetrahydropyrido [4′,3′:4,5]thieno[2,3-d]pyrimidin-4-amine]: the IC50 is less than 200 nM with N87, 200 to 1000 nM with A431 cells and less than 200 nM with H1975 cells.
Regarding `CC(O)CN(C/C=C/C(=O)N1CCc2c(sc3ncnc(Nc4ccc(F)c(Cl)c4)c23)C1)CC(C)O` (stereo not drawn) [Example 39, 1,1′-{[(2E)-4-{4-[(3-chloro-4-fluorophenyl)amino]-5,8-dihydropyrido [4′,3′:4,5]thieno[2,3-d]pyrimidin-7(6H)-yl}-4-oxobut-2-en-1-yl]imino}dipropan-2-ol], the values for the IC50 with N87, with A431 cells and in the assay with H1975 cells were less than 200 nM, 1000 to 10000 nM and 1000 to 10000 nM, respectively.
`O=C(/C=C/CN1CCOCC1)N1CCc2c(sc3ncnc(Nc4ccc(Cl)c(Cl)c4)c23)C1` [Example 191, N-(3,4-dichlorophenyl)-7-[{2E)-4-morpholin-4-ylbut-2-enoyl]-5,6,7,8-tetrahydropyrido [4′,3′:4,5]thieno[2,3-d]pyrimidin-4-amine]: the IC50 in the assay with N87 was less than 200 nM; with A431 cells it was 200 to 1000 nM; in the assay with H1975 cells, 1000 to 10000 nM.
The like results for `O=C(/C=C/CN1CCC(CCO)CC1)N1CCc2c(sc3ncnc(Nc4ccc(F)c(Cl)c4)c23)C1` [Example 57, 2-{1-[(2E)-4-{4-[(3-chloro-4-fluorophenyl)amino]-5,8-dihydropyrido [4′,3′:4,5]thieno[2,3-d]pyrimidin-7(6H)-yl}-4-oxobut-2-en-1-yl]piperidin-4-yl}ethanol] were, in that order, less than 200 nM, 1000 to 10000 nM and 200 to 1000 nM.
The like results for `O=C(/C=C/CN1CCCCC1)N1CCc2c(sc3ncnc(Nc4ccc5c(ccn5Cc5ccccc5)c4)c23)C1` [Example 96, N-(1-benzyl-1H-indol-5-yl)-7-[(2E)-4-piperidin-1-ylbut-2-enoyl]-5,6,7,8-tetrahydropyrido [4′,3′:4,5]thieno[2,3-d]pyrimidin-4-amine] were, in that order, less than 200 nM, 1000 to 10000 nM and 200 to 1000 nM.
The like results for `CCOc1cccc(Nc2ncnc3sc4c(c23)CCN(C(=O)/C=C/CN(C)C)C4)c1` [Example 168, 7-[(2E)-4-(dimethylamino)but-2-enoyl]-N-(3-ethoxyphenyl)-5,6,7,8-tetrahydropyrido [4′,3′:4,5]thieno[2,3-d]pyrimidin-4-amine] were, in that order, less than 200 nM, 1000 to 10000 nM and 1000 to 10000 nM.
Take `CC1CN(C/C=C/C(=O)N2CCc3c(sc4ncnc(Nc5ccc(F)c(Cl)c5)c34)C2)CC(C)O1` (stereo not drawn) [Example 41]: the IC50 is less than 200 nM in the assay on N87, 200 to 1000 nM with A431 cells and 1000 to 10000 nM in the assay with H1975 cells.
The matching figures for `C#Cc1cccc(Nc2ncnc3sc4c(c23)CCN(C(=O)C(=C)CN(CC)CC)C4)c1` [Example 148, 7-{2-[(diethylamino)methyl]acryloyl}-N-(3-ethynylphenyl)-5,6,7,8-tetrahydropyrido [4′,3′:4,5]thieno[2,3-d]pyrimidin-4-amine]: less than 200 nM, 1000 to 10000 nM and 1000 to 10000 nM.
On to `O=C(/C=C/CCN1CCCCC1)N1CCc2c(sc3ncnc(Nc4ccc(F)c(Cl)c4)c23)C1` [Example 154, N-(3-chloro-4-fluorophenyl)-7-[(2E)-5-piperidin-1-ylpent-2-enoyl]-5,6,7,8-tetrahydropyrido [4′,3′:4,5]thieno[2,3-d]pyrimidin-4-amine], for which the IC50 with N87 is less than 200 nM; in the assay on A431 cells, 1000 to 10000 nM; with H1975 cells, 1000 to 10000 nM.
In the case of `O=C(/C=C/Cn1ccnc1)N1CCc2c(sc3ncnc(Nc4ccc(OCc5ccccn5)c(Cl)c4)c23)C1` [Example 51, N-[3-chloro-4-(pyridin-2-ylmethoxy)phenyl]-7-[(2E)-4-(1H-imidazol-1-yl)but-2-enoyl]-5,6,7,8-tetrahydropyrido [4′,3′:4,5]thieno[2,3-d]pyrimidin-4-amine], the 50% inhibitory concentration (IC50) with N87 was less than 200 nM; in the assay on A431 cells, 200 to 1000 nM; in the assay on H1975 cells, 1000 to 10000 nM.
The like results for `CN(C)C/C=C/C(=O)N1CCc2c(sc3ncnc(Nc4ccc(OCc5ccccn5)c(Cl)c4)c23)C1` [Example 3, N-[3-chloro-4-(pyridin-2-ylmethoxy)phenyl]-7-[(2E)-4-(dimethylamino)but-2-enoyl]-5,6,7,8-tetrahydropyrido[4′,3′:4,5]thieno[2,3-d]pyrimidin-4-amine] were, in that order, less than 200 nM, less than 200 nM and 200 to 1000 nM.
The like results for `O=C(/C=C/CN(CCO)CCO)N1CCc2c(sc3ncnc(Nc4ccc(F)c(Cl)c4)c23)C1` [Example 32, 2,2′-{[(2E)-4-{4-[(3-chloro-4-fluorophenyl)amino]-5,8-dihydropyrido [4′,3′:4,5]thieno[2,3-d]pyrimidin-7(6H)-yl}-4-oxobut-2-en-1-yl]imino}diethanol] were, in that order, less than 200 nM, 1000 to 10000 nM and 1000 to 10000 nM.
The like results for `CN(C)C/C=C/C(=O)N1CCc2c(sc3ncnc(Nc4ccc(OCc5cnccn5)c(Cl)c4)c23)C1` [Example 85, N-[3-chloro-4-(pyrazin-2-ylmethoxy)phenyl]-7-[(2E)-4-(dimethylamino)but-2-enoyl]-5,6,7,8-tetrahydropyrido [4′,3′:4,5]thieno[2,3-d]pyrimidin-4-amine] were, in that order, less than 200 nM, 200 to 1000 nM and 200 to 1000 nM.
In the case of `C#Cc1cccc(Nc2ncnc3sc4c(c23)CCN(C(=O)C=C)C4)c1` [Example 27, 7-acryloyl-N-(3-ethynylphenyl)-5,6,7,8-tetrahydropyrido [4′,3′:4,5]thieno[2,3-d]pyrimidin-4-amine], the IC50 is less than 200 nM in the assay on N87, 1000 to 10000 nM in the assay on A431 cells and 200 to 1000 nM in the assay with H1975 cells.
The matching figures for `CCN(CC)C/C=C/C(=O)N1CCc2c(sc3ncnc(Nc4ccc5c(cnn5Cc5ccccn5)c4)c23)C1` [Example 111, 7-[(2E)-4-(diethylamino)but-2-enoyl]-N-[1-(pyridin-2-ylmethyl)-1H-indazol-5-yl]-5,6,7,8-tetrahydropyrido [4′,3′:4,5]thieno[2,3-d]pyrimidin-4-amine]: less than 200 nM, 200 to 1000 nM and 200 to 1000 nM.
The matching figures for `CC(O)CN(C/C=C/C(=O)N1CCc2c(sc3ncnc(Nc4ccc(OCc5ccccn5)c(Cl)c4)c23)C1)CC(C)O` (stereo not drawn) [Example 52, 1,1′-({(2E)-4-[4-{[3-chloro-4-(pyridin-2-ylmethoxy)phenyl]amino}-5,8-dihydropyrido [4′,3′:4,5]thieno[2,3-d]pyrimidin-7(6H)-yl]-4-oxobut-2-en-1-yl}imino)dipropan-2-ol]: 200 to 5000 nM, 1000 to 10000 nM and 1000 to 10000 nM.
The matching figures for `C#Cc1cccc(Nc2ncnc3sc4c(c23)CCN(C(=O)/C=C/CN(CC)CC)C4)c1` [Example 16, 7-[(2E)-4-(diethylamino)but-2-enoyl]-N-(3-ethynylphenyl)-5,6,7,8-tetrahydropyrido[4′,3′:4,5]thieno[2,3-d]pyrimidin-4-amine]: less than 200 nM, less than 200 nM and 200 to 1000 nM.
As to `O=C(/C=C/CN1CCCCC1)N1CCc2c(sc3ncnc(Nc4ccc(OCc5cccc(F)c5)c(Cl)c4)c23)C1` [Example 19, N-{3-chloro-4-[(3-fluorobenzyl)oxy]phenyl}-7-[(2E)-4-piperidin-1-ylbut-2-enoyl]-5,6,7,8-tetrahydropyrido[4′,3′: 4,5]thieno[2,3-d]pyrimidin-4-amine], the IC50 with N87 was less than 200 nM; in the assay with A431 cells it was less than 200 nM; with H1975 cells, 1000 to 10000 nM.
